According to patent US20250108062A1, “VITAMIN NANOCLUSTERS AS THERAPEUTIC AND NUTRACEUTIC AGENTS AND CARRIERS” (FONDAZIONE ISTITUTO ITALIANO DI TECNOLOGIA, priority 2022, published 2025):

Test system: Bone Marrow Derived Monocytes (BMDM)
Test: MTT cell viability / toxicity on BMDMs
Details: 24, 48, 72 h, all tested concentrations
Procedure: After 24, 48, or 72 h of incubation, the culture medium was removed, a MTT solution was added to each well according to the manufacturer's instruction. The absorbance of formazan crystals dissolved in EtOH was quantified using a microplate spectrophotometer at a wavelength of 570 nm, using 650 nm as the reference wavelength (Tecan, Mannedorf, Swiss). The percentage of cell viability was assessed according to the following equation:
where, Abst was the absorbance of treated cells and Abs, was the absorbance of control (untreated) cells.

For `C=C1CC[C@H](O)C/C1=C/C=C1\CCC[C@]2(C)[C@@H]([C@H](C)CCCC(C)C)CC[C@@H]12` [free Vitamin D3, Vitamin D3], the “cytotoxicity (MTT cell viability)” value was “do not induce a significant cytotoxicity”.
